In ChEMBL document CHEMBL5465560, “Selectivity Literature for EUbOPEN Chemogenomic Library” (2024):
Each block holds one compound with its values, some of them ahead of it.

How the values were obtained:
[1] = target: Adenosine receptor A3 (Homo sapiens) (UniProt P0DMS8); assay: Selectivity interaction (Eurofins CEREP Diversity Profile (receptors and ion channels)) EUB0000279b ADORA3; details: at 10 µM
[2] = target: T1, Serine/threonine-protein kinase NLK (Homo sapiens) (UniProt Q9UBE8); assay: Selectivity interaction (KinomeScan (DiscoverX)) EUB0000695a NLK; details: at 100 nM
T1 sequence (whole entry): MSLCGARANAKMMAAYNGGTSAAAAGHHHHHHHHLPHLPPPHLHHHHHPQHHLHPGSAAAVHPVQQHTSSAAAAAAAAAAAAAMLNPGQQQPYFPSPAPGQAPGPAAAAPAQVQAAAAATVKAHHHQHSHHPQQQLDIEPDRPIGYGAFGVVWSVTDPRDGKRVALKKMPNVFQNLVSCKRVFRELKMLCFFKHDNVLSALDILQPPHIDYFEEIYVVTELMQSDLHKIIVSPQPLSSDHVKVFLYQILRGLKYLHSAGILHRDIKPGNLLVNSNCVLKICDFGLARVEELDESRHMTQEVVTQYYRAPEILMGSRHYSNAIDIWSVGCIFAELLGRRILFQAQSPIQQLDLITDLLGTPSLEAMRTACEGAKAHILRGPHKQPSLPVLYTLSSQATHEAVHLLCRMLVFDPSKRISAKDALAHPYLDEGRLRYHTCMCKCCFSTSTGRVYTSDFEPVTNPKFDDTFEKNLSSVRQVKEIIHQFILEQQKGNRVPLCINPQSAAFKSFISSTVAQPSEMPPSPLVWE

[3] = target: Mitogen-activated protein kinase 11 (Homo sapiens) (UniProt Q15759); assay: Selectivity interaction (KinomeScan (DiscoverX)) EUB0000595a MAPK11; details: at 10 µM
Sequence of Mitogen-activated protein kinase 11 (Homo sapiens) (Q15759 whole entry): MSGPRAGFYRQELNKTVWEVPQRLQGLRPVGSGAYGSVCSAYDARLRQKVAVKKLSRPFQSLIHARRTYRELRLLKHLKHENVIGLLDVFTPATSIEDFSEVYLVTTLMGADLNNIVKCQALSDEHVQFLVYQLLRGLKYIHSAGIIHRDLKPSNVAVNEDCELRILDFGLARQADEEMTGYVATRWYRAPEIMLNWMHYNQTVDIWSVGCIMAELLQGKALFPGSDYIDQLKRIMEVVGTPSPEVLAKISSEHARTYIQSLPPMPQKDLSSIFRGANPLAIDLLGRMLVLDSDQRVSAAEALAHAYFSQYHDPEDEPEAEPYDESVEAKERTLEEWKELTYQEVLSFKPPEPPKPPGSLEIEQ

[4] = target: 3',5'-cyclic-AMP phosphodiesterase 4B (Homo sapiens) (UniProt Q07343); assay: Selectivity interaction (Panel of kinases, GPCRs, ion channels and transporters (enzymatic assay)) EUB0000223bCl PDE4B
Sequence of 3',5'-cyclic-AMP phosphodiesterase 4B (Homo sapiens) (Q07343 whole entry): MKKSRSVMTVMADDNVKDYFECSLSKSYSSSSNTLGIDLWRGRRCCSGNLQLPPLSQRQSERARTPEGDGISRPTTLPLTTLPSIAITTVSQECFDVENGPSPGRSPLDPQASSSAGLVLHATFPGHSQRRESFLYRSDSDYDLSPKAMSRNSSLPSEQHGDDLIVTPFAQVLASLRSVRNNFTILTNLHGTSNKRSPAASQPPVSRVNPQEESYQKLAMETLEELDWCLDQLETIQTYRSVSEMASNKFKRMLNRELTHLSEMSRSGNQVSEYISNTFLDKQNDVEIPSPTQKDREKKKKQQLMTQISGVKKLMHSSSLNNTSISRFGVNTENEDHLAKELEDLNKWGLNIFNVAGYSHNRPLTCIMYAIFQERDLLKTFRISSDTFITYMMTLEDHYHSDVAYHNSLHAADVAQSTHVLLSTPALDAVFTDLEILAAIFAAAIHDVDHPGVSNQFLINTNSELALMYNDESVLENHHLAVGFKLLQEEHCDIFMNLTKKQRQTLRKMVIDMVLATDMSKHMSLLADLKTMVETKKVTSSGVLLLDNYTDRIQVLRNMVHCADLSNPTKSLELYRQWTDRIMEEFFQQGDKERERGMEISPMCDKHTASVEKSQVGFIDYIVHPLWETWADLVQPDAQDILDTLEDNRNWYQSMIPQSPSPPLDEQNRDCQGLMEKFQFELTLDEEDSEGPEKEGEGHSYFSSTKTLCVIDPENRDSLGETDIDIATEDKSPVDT

[5] = target: T2, Serine/threonine-protein kinase DCLK1 (Homo sapiens) (UniProt O15075); assay: Selectivity interaction (KinomeScan (DiscoverX)) EUB0001079a DCLK1; details: at 1 µM
T2 sequence (whole entry): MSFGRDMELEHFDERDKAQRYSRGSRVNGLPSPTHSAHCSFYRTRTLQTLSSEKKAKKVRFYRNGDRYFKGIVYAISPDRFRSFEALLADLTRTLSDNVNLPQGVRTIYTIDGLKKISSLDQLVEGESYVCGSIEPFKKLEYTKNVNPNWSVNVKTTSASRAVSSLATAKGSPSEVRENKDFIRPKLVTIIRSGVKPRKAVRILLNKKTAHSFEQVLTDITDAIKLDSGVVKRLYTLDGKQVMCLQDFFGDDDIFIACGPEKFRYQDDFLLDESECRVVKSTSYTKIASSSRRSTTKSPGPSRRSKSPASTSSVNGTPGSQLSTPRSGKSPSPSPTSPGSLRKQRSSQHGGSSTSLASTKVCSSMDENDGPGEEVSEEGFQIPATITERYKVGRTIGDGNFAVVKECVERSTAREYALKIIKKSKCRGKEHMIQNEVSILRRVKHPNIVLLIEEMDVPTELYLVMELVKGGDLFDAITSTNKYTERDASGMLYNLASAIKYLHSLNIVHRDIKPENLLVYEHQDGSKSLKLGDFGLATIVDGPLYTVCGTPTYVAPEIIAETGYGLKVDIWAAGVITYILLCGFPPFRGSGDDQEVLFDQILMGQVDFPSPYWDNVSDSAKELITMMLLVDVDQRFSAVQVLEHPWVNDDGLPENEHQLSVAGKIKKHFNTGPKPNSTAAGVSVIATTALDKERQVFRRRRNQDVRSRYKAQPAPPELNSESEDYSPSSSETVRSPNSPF

[6] = target: Mitotic checkpoint serine/threonine-protein kinase BUB1 (Homo sapiens, UniProt O43683); assay: Selectivity interaction (KinomeScan (DiscoverX)) EUB0000229b BUB1; details: at 10 µM
Sequence of Mitotic checkpoint serine/threonine-protein kinase BUB1 (O43683 whole entry, looked up, canonical isoform): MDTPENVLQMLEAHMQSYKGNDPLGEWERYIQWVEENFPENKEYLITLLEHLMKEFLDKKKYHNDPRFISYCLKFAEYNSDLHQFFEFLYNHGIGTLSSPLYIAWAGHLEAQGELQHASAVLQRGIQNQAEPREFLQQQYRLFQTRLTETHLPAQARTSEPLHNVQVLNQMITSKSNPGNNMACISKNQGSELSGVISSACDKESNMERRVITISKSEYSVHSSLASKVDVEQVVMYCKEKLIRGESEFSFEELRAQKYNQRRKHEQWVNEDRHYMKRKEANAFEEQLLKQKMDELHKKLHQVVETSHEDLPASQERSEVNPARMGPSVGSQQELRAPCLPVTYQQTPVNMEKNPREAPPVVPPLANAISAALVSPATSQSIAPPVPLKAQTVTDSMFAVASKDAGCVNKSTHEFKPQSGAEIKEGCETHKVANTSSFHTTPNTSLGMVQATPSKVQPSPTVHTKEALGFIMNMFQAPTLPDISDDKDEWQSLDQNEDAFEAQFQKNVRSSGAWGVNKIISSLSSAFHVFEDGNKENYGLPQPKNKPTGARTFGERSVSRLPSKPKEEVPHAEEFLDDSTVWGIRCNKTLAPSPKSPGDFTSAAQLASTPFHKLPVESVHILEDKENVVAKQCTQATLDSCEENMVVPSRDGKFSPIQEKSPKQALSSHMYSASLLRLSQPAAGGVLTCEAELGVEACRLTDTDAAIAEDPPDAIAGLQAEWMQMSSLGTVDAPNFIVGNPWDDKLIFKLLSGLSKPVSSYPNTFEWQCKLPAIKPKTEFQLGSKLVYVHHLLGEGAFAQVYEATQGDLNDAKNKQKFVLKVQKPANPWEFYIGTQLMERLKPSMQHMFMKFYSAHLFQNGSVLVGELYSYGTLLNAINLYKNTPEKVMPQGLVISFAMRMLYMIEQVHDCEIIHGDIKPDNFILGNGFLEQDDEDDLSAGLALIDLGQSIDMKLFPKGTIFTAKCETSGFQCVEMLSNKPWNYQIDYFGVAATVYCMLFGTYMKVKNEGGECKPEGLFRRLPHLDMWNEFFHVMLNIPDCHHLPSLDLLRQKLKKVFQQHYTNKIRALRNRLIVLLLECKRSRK

[7] = target: T3, Phosphatidylinositol 4,5-bisphosphate 3-kinase catalytic subunit delta isoform (Homo sapiens) (UniProt O00329); assay: Selectivity interaction (KinomeScan (DiscoverX)) EUB0000618a PIK3CD; details: at 10 µM
T3 sequence (whole entry): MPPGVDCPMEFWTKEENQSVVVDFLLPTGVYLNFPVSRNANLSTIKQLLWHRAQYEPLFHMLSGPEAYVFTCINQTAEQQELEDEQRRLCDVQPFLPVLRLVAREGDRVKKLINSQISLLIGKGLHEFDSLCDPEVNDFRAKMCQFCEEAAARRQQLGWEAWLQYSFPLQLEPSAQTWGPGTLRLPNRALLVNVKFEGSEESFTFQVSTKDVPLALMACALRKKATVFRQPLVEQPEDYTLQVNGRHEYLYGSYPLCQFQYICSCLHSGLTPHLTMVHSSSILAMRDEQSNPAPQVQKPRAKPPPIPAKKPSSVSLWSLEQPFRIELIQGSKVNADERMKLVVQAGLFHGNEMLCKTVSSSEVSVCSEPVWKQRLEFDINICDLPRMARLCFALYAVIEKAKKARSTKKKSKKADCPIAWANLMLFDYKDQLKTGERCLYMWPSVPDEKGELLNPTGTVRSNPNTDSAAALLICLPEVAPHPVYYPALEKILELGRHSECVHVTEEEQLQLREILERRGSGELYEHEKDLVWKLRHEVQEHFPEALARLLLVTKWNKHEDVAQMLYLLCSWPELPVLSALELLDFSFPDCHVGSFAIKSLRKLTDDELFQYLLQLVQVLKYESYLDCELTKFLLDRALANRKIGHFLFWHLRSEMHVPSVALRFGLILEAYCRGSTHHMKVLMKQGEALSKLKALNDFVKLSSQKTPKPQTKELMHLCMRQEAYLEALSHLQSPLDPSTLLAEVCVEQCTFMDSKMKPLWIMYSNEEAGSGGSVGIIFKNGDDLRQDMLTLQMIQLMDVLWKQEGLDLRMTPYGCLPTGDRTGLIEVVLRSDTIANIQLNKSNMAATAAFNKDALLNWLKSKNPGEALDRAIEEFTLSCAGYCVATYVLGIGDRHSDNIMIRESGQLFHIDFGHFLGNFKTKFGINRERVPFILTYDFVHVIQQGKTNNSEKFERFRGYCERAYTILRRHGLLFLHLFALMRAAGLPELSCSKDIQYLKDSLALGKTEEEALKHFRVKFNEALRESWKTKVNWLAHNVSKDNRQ

Sequence of Adenosine receptor A3 (Homo sapiens) (P0DMS8 whole entry): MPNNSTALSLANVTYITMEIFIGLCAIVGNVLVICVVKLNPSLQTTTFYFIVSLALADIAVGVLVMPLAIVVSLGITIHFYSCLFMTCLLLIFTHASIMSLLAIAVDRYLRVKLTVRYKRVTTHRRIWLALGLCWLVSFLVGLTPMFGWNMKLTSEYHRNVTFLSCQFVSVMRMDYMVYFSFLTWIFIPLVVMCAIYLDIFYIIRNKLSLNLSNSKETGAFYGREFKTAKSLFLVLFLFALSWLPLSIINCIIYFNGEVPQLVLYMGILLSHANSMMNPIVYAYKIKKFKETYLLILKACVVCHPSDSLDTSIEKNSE

- % of control [1]: 23%
Structure (SMILES): CC(=O)c1cc(-c2ccccc2OCC2CC2)c2ncccn12

Structure (SMILES): Cc1cc(F)c(C(=O)Nc2cccc(-c3nncn3C(C)C)n2)cc1-n1cnc(C2CC2)c1
- % of control [2]: 96%

Structure (SMILES): COCC(=O)NC/C=C/c1ccc2ncnc(Nc3ccc(Oc4ccc(C)nc4)c(C)c3)c2c1 [CP-724714]
- % of control [3]: 100%

Structure (SMILES): COc1cc(C(=O)N2CC[C@@H](O)[C@@H](N)C2)cc2nc(-c3cc4ccccc4n3CC3CC3)n(C)c12
- pXC50 [4]: 4.4 M

Structure (SMILES): Nc1cnc(N2CCc3cc(S(=O)(=O)Nc4c(F)cc(Cl)cc4F)cc(N4CCCC4=O)c32)nc1 [TP-020n]
- % of control [5]: 100%

Structure (SMILES): COc1cc(N(C)c2ccnc3ccc(C(F)(F)F)cc23)cc(OC)c1OC
- % binding [6]: 98%

Structure (SMILES): O[C@H]1CC[C@H](Nc2ncc3nc(Nc4c(F)cc(F)cc4F)n([C@H]4CCOC4)c3n2)CC1
- % of control [7]: 96%
